tested on: KRAS patient-derived spheroids with HUVEC/MSC, viability; assay: Anticancer human tumor 323965-272-R-J2-PDC patient-derived pancreatic carcinoma cell line growth inhibition [KRAS2]; settings: second compound 0.1 µM; first compound 0.316 µM; hits give low values
Summary of the method: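 KRAS-mutant tumor cells were grown as spheroids with HUVEC endothelial cells and human MSCs as stroma. Targeted agents were tested alone and with KRAS pathway inhibitors. Doses started at or near clinical Cmax, or 10 microM, descending half-log.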
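Note: spheroids exposed to agents for 7 days; 100% = DMSO vehicle control viability.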

Row | SMILES | viability, T/C [%]
1 | COc1cc2nccc(Oc3ccc(NC(=O)C4(C(=O)Nc5ccc(F)cc5)CC4)cc3)c2cc1OC + CC1OCC2(CCN(c3cnc(Sc4ccnc(N)c4Cl)c(N)n3)CC2)C1N | 74.9
2 | O=C(c1cc(Cc2n[nH]c(=O)c3ccccc23)ccc1F)N1CCN(C(=O)C2CC2)CC1 + CC1OCC2(CCN(c3cnc(Sc4ccnc(N)c4Cl)c(N)n3)CC2)C1N | 82.2

same assay, conditions: second compound 0.1 µM; first compound 1 µM; hits give low values

Row | SMILES | viability, T/C [%]
3 | COC(=O)c1ccc2c(C(=Nc3ccc(N(C)C(=O)CN4CCN(C)CC4)cc3)c3ccccc3)c(O)[nH]c2c1 + CC1OCC2(CCN(c3cnc(Sc4ccnc(N)c4Cl)c(N)n3)CC2)C1N | 76.3
4 | COc1cc(Nc2ncc3c(n2)-c2ccc(Cl)cc2C(c2c(F)cccc2OC)=NC3)ccc1C(=O)O + CC1OCC2(CCN(c3cnc(Sc4ccnc(N)c4Cl)c(N)n3)CC2)C1N | 44.3
5 | COc1cc2nccc(Oc3ccc(NC(=O)C4(C(=O)Nc5ccc(F)cc5)CC4)cc3)c2cc1OC + CC1OCC2(CCN(c3cnc(Sc4ccnc(N)c4Cl)c(N)n3)CC2)C1N | 87.4
6 | O=C(c1cc(Cc2n[nH]c(=O)c3ccccc23)ccc1F)N1CCN(C(=O)C2CC2)CC1 + CC1OCC2(CCN(c3cnc(Sc4ccnc(N)c4Cl)c(N)n3)CC2)C1N | 80.1

same assay, conditions: second compound 0.1 µM; first compound 3.16 µM; hits give low values

Row | SMILES | viability, T/C [%]
7 | COC(=O)c1ccc2c(C(=Nc3ccc(N(C)C(=O)CN4CCN(C)CC4)cc3)c3ccccc3)c(O)[nH]c2c1 + CC1OCC2(CCN(c3cnc(Sc4ccnc(N)c4Cl)c(N)n3)CC2)C1N | 79.1
8 | COc1cc(Nc2ncc3c(n2)-c2ccc(Cl)cc2C(c2c(F)cccc2OC)=NC3)ccc1C(=O)O + CC1OCC2(CCN(c3cnc(Sc4ccnc(N)c4Cl)c(N)n3)CC2)C1N | 50.6
9 | COc1cc2nccc(Oc3ccc(NC(=O)C4(C(=O)Nc5ccc(F)cc5)CC4)cc3)c2cc1OC + CC1OCC2(CCN(c3cnc(Sc4ccnc(N)c4Cl)c(N)n3)CC2)C1N | 79.8
10 | O=C(c1cc(Cc2n[nH]c(=O)c3ccccc23)ccc1F)N1CCN(C(=O)C2CC2)CC1 + CC1OCC2(CCN(c3cnc(Sc4ccnc(N)c4Cl)c(N)n3)CC2)C1N | 82.3

same assay, conditions: second compound 0.1 µM; first compound 10 µM; hits give low values

Row | SMILES | viability, T/C [%]
11 | COC(=O)c1ccc2c(C(=Nc3ccc(N(C)C(=O)CN4CCN(C)CC4)cc3)c3ccccc3)c(O)[nH]c2c1 + CC1OCC2(CCN(c3cnc(Sc4ccnc(N)c4Cl)c(N)n3)CC2)C1N | 73.4
12 | COc1cc(Nc2ncc3c(n2)-c2ccc(Cl)cc2C(c2c(F)cccc2OC)=NC3)ccc1C(=O)O + CC1OCC2(CCN(c3cnc(Sc4ccnc(N)c4Cl)c(N)n3)CC2)C1N | 56.2
13 | COc1cc2nccc(Oc3ccc(NC(=O)C4(C(=O)Nc5ccc(F)cc5)CC4)cc3)c2cc1OC + CC1OCC2(CCN(c3cnc(Sc4ccnc(N)c4Cl)c(N)n3)CC2)C1N | 73.5
14 | O=C(c1cc(Cc2n[nH]c(=O)c3ccccc23)ccc1F)N1CCN(C(=O)C2CC2)CC1 + CC1OCC2(CCN(c3cnc(Sc4ccnc(N)c4Cl)c(N)n3)CC2)C1N | 53.7

same assay, conditions: second compound 0.316 µM; first compound 0.0001 µM; hits give low values

Row | SMILES | viability, T/C [%]
15 | CC(=O)Nc1cccc(-n2c(=O)n(C3CC3)c(=O)c3c(Nc4ccc(I)cc4F)n(C)c(=O)c(C)c32)c1 + CC1OCC2(CCN(c3cnc(Sc4ccnc(N)c4Cl)c(N)n3)CC2)C1N | 63.1

same assay, conditions: second compound 0.316 µM; first compound 0.000316 µM; hits give low values

Row | SMILES | viability, T/C [%]
16 | CC(=O)Nc1cccc(-n2c(=O)n(C3CC3)c(=O)c3c(Nc4ccc(I)cc4F)n(C)c(=O)c(C)c32)c1 + CC1OCC2(CCN(c3cnc(Sc4ccnc(N)c4Cl)c(N)n3)CC2)C1N | 53.3
17 | CC(C)n1nc(-c2ccc3oc(N)nc3c2)c2c(N)ncnc21 + CC1OCC2(CCN(c3cnc(Sc4ccnc(N)c4Cl)c(N)n3)CC2)C1N | 46.2

same assay, conditions: second compound 0.316 µM; first compound 0.001 µM; hits give low values

Row | SMILES | viability, T/C [%]
18 | CC(=O)Nc1cccc(-n2c(=O)n(C3CC3)c(=O)c3c(Nc4ccc(I)cc4F)n(C)c(=O)c(C)c32)c1 + CC1OCC2(CCN(c3cnc(Sc4ccnc(N)c4Cl)c(N)n3)CC2)C1N | 41.7
19 | CC(C)n1nc(-c2ccc3oc(N)nc3c2)c2c(N)ncnc21 + CC1OCC2(CCN(c3cnc(Sc4ccnc(N)c4Cl)c(N)n3)CC2)C1N | 42.1

same assay, conditions: second compound 0.316 µM; first compound 0.00316 µM; hits give low values

Row | SMILES | viability, T/C [%]
20 | CC(=O)Nc1cccc(-n2c(=O)n(C3CC3)c(=O)c3c(Nc4ccc(I)cc4F)n(C)c(=O)c(C)c32)c1 + CC1OCC2(CCN(c3cnc(Sc4ccnc(N)c4Cl)c(N)n3)CC2)C1N | 34.9
21 | CC(C)n1nc(-c2ccc3oc(N)nc3c2)c2c(N)ncnc21 + CC1OCC2(CCN(c3cnc(Sc4ccnc(N)c4Cl)c(N)n3)CC2)C1N | 31.8

same assay, conditions: second compound 0.316 µM; first compound 0.01 µM; hits give low values

Row | SMILES | viability, T/C [%]
22 | CC(=O)Nc1cccc(-n2c(=O)n(C3CC3)c(=O)c3c(Nc4ccc(I)cc4F)n(C)c(=O)c(C)c32)c1 + CC1OCC2(CCN(c3cnc(Sc4ccnc(N)c4Cl)c(N)n3)CC2)C1N | 27.1
23 | CC(C)n1nc(-c2ccc3oc(N)nc3c2)c2c(N)ncnc21 + CC1OCC2(CCN(c3cnc(Sc4ccnc(N)c4Cl)c(N)n3)CC2)C1N | 21

same assay, conditions: second compound 0.316 µM; first compound 0.0316 µM; hits give low values

Row | SMILES | viability, T/C [%]
24 | CC(=O)Nc1cccc(-n2c(=O)n(C3CC3)c(=O)c3c(Nc4ccc(I)cc4F)n(C)c(=O)c(C)c32)c1 + CC1OCC2(CCN(c3cnc(Sc4ccnc(N)c4Cl)c(N)n3)CC2)C1N | 20.4
25 | CC(C)n1nc(-c2ccc3oc(N)nc3c2)c2c(N)ncnc21 + CC1OCC2(CCN(c3cnc(Sc4ccnc(N)c4Cl)c(N)n3)CC2)C1N | 12.4
26 | COC(=O)c1ccc2c(C(=Nc3ccc(N(C)C(=O)CN4CCN(C)CC4)cc3)c3ccccc3)c(O)[nH]c2c1 + CC1OCC2(CCN(c3cnc(Sc4ccnc(N)c4Cl)c(N)n3)CC2)C1N | 74.8
27 | COc1cc(Nc2ncc3c(n2)-c2ccc(Cl)cc2C(c2c(F)cccc2OC)=NC3)ccc1C(=O)O + CC1OCC2(CCN(c3cnc(Sc4ccnc(N)c4Cl)c(N)n3)CC2)C1N | 57.2
28 | COc1cc2nccc(Oc3ccc(NC(=O)C4(C(=O)Nc5ccc(F)cc5)CC4)cc3)c2cc1OC + CC1OCC2(CCN(c3cnc(Sc4ccnc(N)c4Cl)c(N)n3)CC2)C1N | 58.7
29 | O=C(c1cc(Cc2n[nH]c(=O)c3ccccc23)ccc1F)N1CCN(C(=O)C2CC2)CC1 + CC1OCC2(CCN(c3cnc(Sc4ccnc(N)c4Cl)c(N)n3)CC2)C1N | 60.9

same assay, conditions: second compound 0.316 µM; first compound 0.1 µM; hits give low values

Row | SMILES | viability, T/C [%]
30 | CC(C)n1nc(-c2ccc3oc(N)nc3c2)c2c(N)ncnc21 + CC1OCC2(CCN(c3cnc(Sc4ccnc(N)c4Cl)c(N)n3)CC2)C1N | 5.7
31 | COC(=O)c1ccc2c(C(=Nc3ccc(N(C)C(=O)CN4CCN(C)CC4)cc3)c3ccccc3)c(O)[nH]c2c1 + CC1OCC2(CCN(c3cnc(Sc4ccnc(N)c4Cl)c(N)n3)CC2)C1N | 59.2
32 | COc1cc(Nc2ncc3c(n2)-c2ccc(Cl)cc2C(c2c(F)cccc2OC)=NC3)ccc1C(=O)O + CC1OCC2(CCN(c3cnc(Sc4ccnc(N)c4Cl)c(N)n3)CC2)C1N | 39.9
33 | COc1cc2nccc(Oc3ccc(NC(=O)C4(C(=O)Nc5ccc(F)cc5)CC4)cc3)c2cc1OC + CC1OCC2(CCN(c3cnc(Sc4ccnc(N)c4Cl)c(N)n3)CC2)C1N | 65.4
34 | O=C(c1cc(Cc2n[nH]c(=O)c3ccccc23)ccc1F)N1CCN(C(=O)C2CC2)CC1 + CC1OCC2(CCN(c3cnc(Sc4ccnc(N)c4Cl)c(N)n3)CC2)C1N | 67.9

same assay, conditions: second compound 0.316 µM; first compound 0.316 µM; hits give low values

Row | SMILES | viability, T/C [%]
35 | COC(=O)c1ccc2c(C(=Nc3ccc(N(C)C(=O)CN4CCN(C)CC4)cc3)c3ccccc3)c(O)[nH]c2c1 + CC1OCC2(CCN(c3cnc(Sc4ccnc(N)c4Cl)c(N)n3)CC2)C1N | 61.1
36 | COc1cc(Nc2ncc3c(n2)-c2ccc(Cl)cc2C(c2c(F)cccc2OC)=NC3)ccc1C(=O)O + CC1OCC2(CCN(c3cnc(Sc4ccnc(N)c4Cl)c(N)n3)CC2)C1N | 30.8
37 | COc1cc2nccc(Oc3ccc(NC(=O)C4(C(=O)Nc5ccc(F)cc5)CC4)cc3)c2cc1OC + CC1OCC2(CCN(c3cnc(Sc4ccnc(N)c4Cl)c(N)n3)CC2)C1N | 65.5
38 | O=C(c1cc(Cc2n[nH]c(=O)c3ccccc23)ccc1F)N1CCN(C(=O)C2CC2)CC1 + CC1OCC2(CCN(c3cnc(Sc4ccnc(N)c4Cl)c(N)n3)CC2)C1N | 65.8

same assay, conditions: second compound 0.316 µM; first compound 1 µM; hits give low values

Row | SMILES | viability, T/C [%]
39 | COC(=O)c1ccc2c(C(=Nc3ccc(N(C)C(=O)CN4CCN(C)CC4)cc3)c3ccccc3)c(O)[nH]c2c1 + CC1OCC2(CCN(c3cnc(Sc4ccnc(N)c4Cl)c(N)n3)CC2)C1N | 65.2
40 | COc1cc(Nc2ncc3c(n2)-c2ccc(Cl)cc2C(c2c(F)cccc2OC)=NC3)ccc1C(=O)O + CC1OCC2(CCN(c3cnc(Sc4ccnc(N)c4Cl)c(N)n3)CC2)C1N | 32.6
41 | COc1cc2nccc(Oc3ccc(NC(=O)C4(C(=O)Nc5ccc(F)cc5)CC4)cc3)c2cc1OC + CC1OCC2(CCN(c3cnc(Sc4ccnc(N)c4Cl)c(N)n3)CC2)C1N | 64.6
42 | O=C(c1cc(Cc2n[nH]c(=O)c3ccccc23)ccc1F)N1CCN(C(=O)C2CC2)CC1 + CC1OCC2(CCN(c3cnc(Sc4ccnc(N)c4Cl)c(N)n3)CC2)C1N | 67.3

same assay, conditions: second compound 0.316 µM; first compound 3.16 µM; hits give low values

Row | SMILES | viability, T/C [%]
43 | COC(=O)c1ccc2c(C(=Nc3ccc(N(C)C(=O)CN4CCN(C)CC4)cc3)c3ccccc3)c(O)[nH]c2c1 + CC1OCC2(CCN(c3cnc(Sc4ccnc(N)c4Cl)c(N)n3)CC2)C1N | 50
44 | COc1cc(Nc2ncc3c(n2)-c2ccc(Cl)cc2C(c2c(F)cccc2OC)=NC3)ccc1C(=O)O + CC1OCC2(CCN(c3cnc(Sc4ccnc(N)c4Cl)c(N)n3)CC2)C1N | 39.1
45 | COc1cc2nccc(Oc3ccc(NC(=O)C4(C(=O)Nc5ccc(F)cc5)CC4)cc3)c2cc1OC + CC1OCC2(CCN(c3cnc(Sc4ccnc(N)c4Cl)c(N)n3)CC2)C1N | 71.9
46 | O=C(c1cc(Cc2n[nH]c(=O)c3ccccc23)ccc1F)N1CCN(C(=O)C2CC2)CC1 + CC1OCC2(CCN(c3cnc(Sc4ccnc(N)c4Cl)c(N)n3)CC2)C1N | 61.3

same assay, conditions: second compound 0.316 µM; first compound 10 µM; hits give low values

Row | SMILES | viability, T/C [%]
47 | COC(=O)c1ccc2c(C(=Nc3ccc(N(C)C(=O)CN4CCN(C)CC4)cc3)c3ccccc3)c(O)[nH]c2c1 + CC1OCC2(CCN(c3cnc(Sc4ccnc(N)c4Cl)c(N)n3)CC2)C1N | 45.8
48 | COc1cc(Nc2ncc3c(n2)-c2ccc(Cl)cc2C(c2c(F)cccc2OC)=NC3)ccc1C(=O)O + CC1OCC2(CCN(c3cnc(Sc4ccnc(N)c4Cl)c(N)n3)CC2)C1N | 43.8
49 | COc1cc2nccc(Oc3ccc(NC(=O)C4(C(=O)Nc5ccc(F)cc5)CC4)cc3)c2cc1OC + CC1OCC2(CCN(c3cnc(Sc4ccnc(N)c4Cl)c(N)n3)CC2)C1N | 63
50 | O=C(c1cc(Cc2n[nH]c(=O)c3ccccc23)ccc1F)N1CCN(C(=O)C2CC2)CC1 + CC1OCC2(CCN(c3cnc(Sc4ccnc(N)c4Cl)c(N)n3)CC2)C1N | 40.1

same assay, conditions: second compound 1 µM; first compound 0.0001 µM; hits give low values

Row | SMILES | viability, T/C [%]
51 | CC(=O)Nc1cccc(-n2c(=O)n(C3CC3)c(=O)c3c(Nc4ccc(I)cc4F)n(C)c(=O)c(C)c32)c1 + CC1OCC2(CCN(c3cnc(Sc4ccnc(N)c4Cl)c(N)n3)CC2)C1N | 47.3

same assay, conditions: second compound 1 µM; first compound 0.000316 µM; hits give low values

Row | SMILES | viability, T/C [%]
52 | CC(=O)Nc1cccc(-n2c(=O)n(C3CC3)c(=O)c3c(Nc4ccc(I)cc4F)n(C)c(=O)c(C)c32)c1 + CC1OCC2(CCN(c3cnc(Sc4ccnc(N)c4Cl)c(N)n3)CC2)C1N | 40
53 | CC(C)n1nc(-c2ccc3oc(N)nc3c2)c2c(N)ncnc21 + CC1OCC2(CCN(c3cnc(Sc4ccnc(N)c4Cl)c(N)n3)CC2)C1N | 47.9
